Results reported in patent US20240174690A1, “ANNULATED 2-AMINO-3-CYANO THIOPHENES AND DERIVATIVES FOR THE TREATMENT OF CANCER” (BOEHRINGER INGELHEIM INTERNATIONAL GMBH, priority 2021, published 2024).

Experiments:
AsPC-1 cells = assay: AsPC-1 CTG proliferation assay (120 h) (pancreatic cancer, G12D); assay type: cell-based; conditions: Homo sapiens, ASPC1
Protocol: AsPC-1 CTG Proliferation Assay (120 h) (Pancreatic Cancer, G12D)
The CTG assay is designed to measure quantitatively the proliferation of AsPC-1 cells (ATCC […]), using the CellTiter Glow Assay Kit (Promega G7571). Cells are grown in RPMI medium (ATCC) supplemented with Fetal Calf Serum (Life Technologies, Gibco BRL, Cat. No. 10270-106). On “day 0” 2000 AsPC-1 cells are seeded in 60 μL RPMI ATCC+10% FCS+Penstrep in a 384-well plate, flat and clear bottom (Greiner, PNr. 781091). Cells are then incubated in the plates at 37° C. in a CO2 incubator overnight. On day 1, compounds (10 mM stock in DMSO) are added with the ECHO acoustic liquid handler system (Beckman Coulter), including DMSO controls. Plates are incubated for 120 h, and cell viability is measured using CellTiter-Glo luminescent cell viability reagent (Promega product code G7570). Viability (stated as percent of control) is defined as relative luminescence units RLU of each well divided by the RLU of cells in DMSO controls. IC50 values are determined from viability measurements by non-linear regression using a four-parameter model.

KRAS (G12D)::SOS1 = KRAS (G12D)::SOS1 (Homo sapiens (Human), UniProt P01116, G12D); assay: KRAS::SOS1 AlphaScreen binding assay, KRAS G12D
KRAS (G12D)::SOS1, sequence (P01116 other isoform, or with tags, fused parts or gaps G12D): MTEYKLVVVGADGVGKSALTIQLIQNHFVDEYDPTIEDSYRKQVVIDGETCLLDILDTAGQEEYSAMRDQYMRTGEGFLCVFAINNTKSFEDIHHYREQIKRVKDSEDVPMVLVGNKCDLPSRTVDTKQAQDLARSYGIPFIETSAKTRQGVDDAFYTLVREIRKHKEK
Source text: This assay can be used to examine the potency with which compounds according to the invention binding to (mutated) KRAS inhibit the protein-protein interaction between SOS1 and (mutated) KRAS e.g., KRAS WT, KRAS G12C, KRAS G12D, KRAS G12V, KRAS G13D. […] Low IC50 values in this assay setting are indicative of strong inhibition of protein-protein interaction between SOS1 and KRAS:
These assays measure the inhibitory effect of compounds on KRAS mutant protein-protein interactions using the Alpha Screen technology by Perkin Elmer.
The following (mutant) enzyme forms of KRAS and interacting proteins are used in these assays at the given concentrations: • KRAS (G12D) 1-169, N-terminal 6His-tag, C-terminal avi-tag (Xtal BioStructures, Inc.); final assay concentration 10 nM and SOS1 564-1049, N-terminal 229 GST-tag, TEV cleavage site (Viva Biotech Ltd); final assay concentration 5 nM; • KRAS (G12C) 1-169, N-terminal 6His-tag for purification, cleaved off, C-terminal avi-tag, biotinylated, mutations: C51S, C80L, C118S (in house); final assay concentration 7.5 nM and SOS1 564-1049, N-terminal 229 GST-tag, TEV cleavage site (Viva Biotech Ltd); final assay concentration 5 nM; • KRAS (G12V) 1-169, N-terminal 6His-tag for purification, cleaved off, C-terminal avi-tag, biotinylated, TEV cleavage site, mutation: C118S, GDP loaded (in house); final assay concentration 10 nM and SOS1 564-1049, N-terminal 229 GST-tag, TEV cleavage site (Viva Biotech Ltd); final assay concentration 10 nM; • KRAS (G13D) 1-169, N-terminal 6His-tag for purification, cleaved off, C-terminal avi-tag, biotinylated, TEV cleavage site, mutation: C118S, GDP loaded (in house); final assay concentration 10 nM and SOS1 564-1049, N-terminal 229 GST-tag, TEV cleavage site (Viva Biotech Ltd); final assay concentration 10 nM; • KRAS (WT) 1-169, N-terminal 6His-tag for purification, cleaved off, C-terminal avi-tag, biotinylated, TEV cleavage site, mutation: C118S, GDP loaded (in house); final assay concentration 10 nM and SOS1 564-1049, N-terminal 229 GST-tag, TEV cleavage site (Viva Biotech Ltd); final assay concentration 10 nM.
Test compounds dissolved in DMSO are dispensed onto assay plates (Proxiplate 384 PLUS, white, PerkinElmer; 6008289) using an Access Labcyte Workstation with the Labcyte Echo 55×. For the chosen highest assay concentration of 100 μM, 150 nL of compound solution are transferred from a 10 mM DMSO compound stock solution. A series of eleven fivefold dilutions per compound are transferred to the assay plate, compound dilutions are tested in duplicates. DMSO are added as backfill to a total volume of 150 nL.
The assays run on a fully automated robotic system in a darkened room below 100 Lux. To 150 nl of compound dilution 10 μl of a mix including KRAS mutant protein, SOS1 (final assay concentrations see above) and GDP nucleotide (Sigma G7127; final assay concentration 10 μM) in assay buffer (1×PBS, 0.1% BSA, 0.05% Tween 20) are added into columns 1-24.
After 30 minutes incubation time 5 μl of Alpha Screen bead mix in assay buffer are added into columns 1-23. Bead mix consists of AlphaLISA Glutathione Acceptor Beads (PerkinElmer, Cat No AL109) and AlphaScreen Streptavidin Donor Beads (PerkinElmer Cat No 6760002) in assay buffer at a final assay concentration of 10 μg/ml each.
Plates are kept at room temperature in a darkened incubator. After an additional 60 minutes incubation time the signal is measured in a PerkinElmer Envision HTS Multilabel Reader using the AlphaScreen specs from PerkinElmer.
Each plate contains up to 16 wells of a negative control depending on the dilution procedure (platewise or serial) (DMSO instead of test compound; with KRAS mutant::SOS1 GDP mix and bead mix; column 23) and 16 wells of a positive control (DMSO instead of test compound; with KRAS mutant::SOS1 GDP mix w/o bead mix; column 24).
As internal control known inhibitors of KRAS mutant::SOS1 interaction can be measured on each compound plate. […]

IC50 (AsPC-1 cells)	IC50 (KRAS (G12D)::SOS1)	Compound
2100 nM	2 nM	C[C@H](Oc1cc(-n2cc(Cn3cncn3)nn2)nc(-c2noc3c2CCC[C@@]32CCCc3sc(N)c(C#N)c32)n1)[C@@H]1CCCN1C [II-124]
1320 nM	2 nM	C[C@H](Oc1cc(-n2cncc3ccnc2-3)nc(-c2noc3c2CCC[C@@]32CCCc3sc(N)c(C#N)c32)n1)[C@@H]1CCCN1C [II-105]
1560 nM	1 nM	C[C@H](Oc1cc(N2CCN(C)C2=O)nc(-c2noc3c2CCC[C@@]32CCCc3sc(N)c(C#N)c32)n1)[C@@H]1CCCN1C [II-75]
511 nM	1 nM	C[C@H](Oc1cc(N2CC[C@H](N(C)C)C2)nc(-c2noc3c2CCC[C@@]32CCCc3sc(N)c(C#N)c32)n1)[C@@H]1CCCN1C [II-49]
1840 nM	2 nM	C[C@H](Oc1cc(N2CCC[C@H](O)C2)nc(-c2noc3c2CCC[C@@]32CCCc3sc(N)c(C#N)c32)n1)[C@@H]1CCCN1C [II-57]
3340 nM	4 nM	C[C@H](Oc1cc(-c2ccn(C3CC3)n2)nc(-c2noc3c2CCC[C@@]32CCCc3sc(N)c(C#N)c32)n1)[C@@H]1CCCN1C [II-98]
3320 nM	2 nM	C[C@H](Oc1cc(C2COCCO2)nc(-c2noc3c2CCC[C@@]32CCCc3sc(N)c(C#N)c32)n1)[C@@H]1CCCN1C (stereo partly shown) [II-95]
3240 nM	9 nM	Cc1cn(C)nc1-c1cc(O[C@@H](C)[C@@H]2CCCN2C)nc(-c2noc3c2CCC[C@@]32CCCc3sc(N)c(C#N)c32)n1 [II-68]
903 nM	1 nM	C[C@H](Oc1cc(N2CCNC[C@@]23CCOC3)nc(-c2noc3c2CCC[C@@]32CCCc3sc(N)c(C#N)c32)n1)[C@@H]1CCCN1C [II-51]
1730 nM	2 nM	C[C@H](Oc1cc(-n2ccnc2)nc(-c2noc3c2CCC[C@@]32CCCc3sc(N)c(C#N)c32)n1)[C@@H]1CCCN1C [II-69]
	13 nM	C[C@H](Oc1cc(-c2cn(C3CCOCC3)nn2)nc(-c2noc3c2CCC[C@@]32CCCc3sc(N)c(C#N)c32)n1)[C@@H]1CCCN1C [II-115]
6420 nM	3 nM	CO[C@@H]1C[C@@H]([C@H](C)Oc2cc(-n3ccnc3)nc(-c3noc4c3CCC[C@@]43CCCc4sc(N)c(C#N)c43)n2)N(C)C1 [II-58]
1070 nM	1 nM	C[C@H](Oc1cc(N2CCNC2=O)nc(-c2noc3c2CCC[C@@]32CCCc3sc(N)c(C#N)c32)n1)[C@@H]1CCCN1C [II-64]
1980 nM	1 nM	C[C@H](Oc1cc([C@H]2CCOC2)nc(-c2noc3c2CCC[C@@]32CCCc3sc(N)c(C#N)c32)n1)[C@@H]1CCCN1C [II-88]
1660 nM	2 nM	C[C@H](Oc1cc(-c2ccn(C[C@@H](C)O)n2)nc(-c2noc3c2CCC[C@@]32CCCc3sc(N)c(C#N)c32)n1)[C@@H]1CCCN1C [II-117]
3240 nM	4 nM	C[C@H](Oc1cc(N2CCC(C#N)C2)nc(-c2noc3c2CCC[C@@]32CCCc3sc(N)c(C#N)c32)n1)[C@@H]1CCCN1C (stereo partly shown) [II-99]
1320 nM	2 nM	C[C@H](Oc1cc(-n2ccc(-c3ccccn3)n2)nc(-c2noc3c2CCC[C@@]32CCCc3sc(N)c(C#N)c32)n1)[C@@H]1CCCN1C [II-119]

IC50 (AsPC-1 cells)	IC50 (KRAS (G12D)::SOS1)	Compound
86 nM	1 nM	C[C@H](Oc1cc(N2CCNC3(CC3)C2)nc(-c2onc3c2CCC[C@@]32CCCc3sc(N)c(C#N)c32)n1)[C@@H]1CCCN1C [I-5]
3560 nM	9 nM	C[C@H](Oc1cc(-n2cnc3cccnc32)nc(-c2noc3c2CCC[C@@]32CCCc3sc(N)c(C#N)c32)n1)[C@@H]1CCCN1C [II-65]
3070 nM	3 nM	COCc1cn(-c2cc(O[C@@H](C)[C@@H]3CCCN3C)nc(-c3noc4c3CCC[C@@]43CCCc4sc(N)c(C#N)c43)n2)nn1 [II-121]
2360 nM	13 nM	C[C@H](Oc1cc(-c2cccc(CO)c2)nc(-c2noc3c2CCC[C@@]32CCCc3sc(N)c(C#N)c32)n1)[C@@H]1CCCN1C [II-97]
2300 nM	3 nM	COC(=O)c1ccc(-c2cc(O[C@@H](C)[C@@H]3CCCN3C)nc(-c3noc4c3CCC[C@@]43CCCc4sc(N)c(C#N)c43)n2)o1 [II-114]
1540 nM	8 nM	C[C@H](Oc1cc(-n2cc(-c3cccnc3)nn2)nc(-c2noc3c2CCC[C@@]32CCCc3sc(N)c(C#N)c32)n1)[C@@H]1CCCN1C [II-123]
3300 nM	12 nM	C[C@H](Oc1cc(N2Cc3cnn(C)c3C2)nc(-c2noc3c2CCC[C@@]32CCCc3sc(N)c(C#N)c32)n1)[C@@H]1CCCN1C [II-63]
9770 nM	6 nM	C[C@H](Oc1cc(-c2cn(C3COC3)nn2)nc(-c2noc3c2CCC[C@@]32CCCc3sc(N)c(C#N)c32)n1)[C@@H]1CCCN1C [II-100]
1670 nM	2 nM	C[C@H](Oc1cc(-c2cc[nH]n2)nc(-c2noc3c2CCC[C@@]32CCCc3sc(N)c(C#N)c32)n1)[C@@H]1CCCN1C [II-71]
3040 nM	12 nM	C[C@H](Oc1cc(-c2ccn(-c3ccccc3)n2)nc(-c2noc3c2CCC[C@@]32CCCc3sc(N)c(C#N)c32)n1)[C@@H]1CCCN1C [II-89]
3210 nM	6 nM	C[C@H](Oc1cc(-c2cnn(C)c2)nc(-c2noc3c2CCC[C@@]32CCCc3sc(N)c(C#N)c32)n1)[C@@H]1CCCN1C [II-74]
3510 nM	9 nM	C[C@H](Oc1cc(-n2ccnc2)nc(-c2noc3c2CCC[C@@]32CCCc3sc(N)c(C#N)c32)n1)[C@@H]1C[C@@H](F)CN1C [II-120]
2250 nM	1 nM	C[C@H](O)Cn1ccc(-c2cc(O[C@@H](C)[C@@H]3CCCN3C)nc(-c3noc4c3CCC[C@@]43CCCc4sc(N)c(C#N)c43)n2)n1 [II-112]
825 nM	1 nM	C[C@H](Oc1cc(-n2cc3c(n2)CCNC3)nc(-c2noc3c2CCC[C@@]32CCCc3sc(N)c(C#N)c32)n1)[C@@H]1CCCN1C [II-53]
	1 nM	C[C@H](Oc1cc(N2CCNCC23CCOC3)nc(-c2onc3c2CCC[C@@]32CCCc3sc(N)c(C#N)c32)n1)[C@@H]1CCCN1C (stereo partly shown) [I-10]
	2 nM	Cc1nc(-c2cc(O[C@@H](C)[C@@H]3CCCN3C)nc(-c3noc4c3CCC[C@@]43CCCc4sc(N)c(C#N)c43)n2)cs1 [II-103]
	5 nM	C[C@H](Oc1cc(-c2ccn3ncnc3c2)nc(-c2noc3c2CCC[C@@]32CCCc3sc(N)c(C#N)c32)n1)[C@@H]1CCCN1C [II-104]
